Values joined by “and” are separate entries in the source; they are usually repeats but may differ in a detail not shown here. Equal values may be shown once.
Experiments:
[1] = tested on: TPA-stimulated epidermal DNA synthesis in mouse epidermis; assay: TPA-induced epidermal DNA synthesis in mouse epidermis, transdermal fluasterone; assay type: in vivo, CD-1 mice; conditions: for cpm/μg DNA: 20 h, single mice and group mean
Experimental: In dose-response experiments the anti-hyperplastic efficacy of fluasterone in TPA-treated mouse epidermis to determine bioavailability following different routes of administration was measured. Mice were treated with a single dose of fluasterone (either orally, subcutaneously, or transdermally) followed by a single application of TPA to the shaved back one hour latter. In case of transdermal administration, fluasterone is applied in a topical formulation to the shaved abdomen to allow for systemic absorption to the back of the animal. Twenty hours after TPA application, the mice are injected with 60 μCi of [3H] thymidine, sacrificed 20 minutes later, and a 2×2 cm2 of skin from the shaved back is excised and processed for the determination of the amount of [3H] thymidine incorporated per unit of epidermal DNA. (Hennings et. al., Cancer Res. 28:543-552, 1968).
Female CD-1 mice, 40-43 days old, were obtained from Charles River Laboratories, Kingston, N.Y. The mice were housed two per cage in plastic shoebox cages on Absorbdri bedding with 12 hours of alternating light and dark in the Central Animal Facility. The mice had ad libitum access to Purina 5015 chow and acidified tap water (pH S 2.6). The mice were allowed to acclimate to the facility for approximately two weeks prior to use in an experiment. […]
The mice were weighed, marked with magic marker on the tail, and shaved on the back and the abdomen one day prior to treatment. Only those mice showing no hair regrowth were used in the experiment. Fluasterone was applied to the shaved abdomen one hour before TPA was applied to the shaved back. The mice were anesthetized and on their backs prior to topical application of TPA. […]
The mice were anesthetized with Isoflurane, and then were given an intramuscular injection of 0.1 mL solution of ketamine (50 mg/kg), xylazine (10 mg/kg) and atropine (0.1 mg/kg). Approximately 10 minutes after the i.m. injection (after the mice could not turn over when placed on their backs), the mice were treated with 5 μL of a 12.5 mg/mL fluasterone/carbitol solution to give a dose of 2.5 mg/kg. The mice were anesthetized and on their backs for approximately 30 minutes after application of fluasterone/carbitol solution. One hour after the application of fluasterone/carbitol solution, 2 μg of TPA dissolved in. 0.2 mL of acetone was applied to the shaved area on the back of each mouse. […]
The mice were anesthetized with Isoflurane, and then were given an intramuscular injection of 0.1 mL solution of ketamine (50 mg/kg), xylazine (10 mg/kg) and atropine (0.1 mg/kg). Approximately 10 minutes after the i.m. injection (after the mice could not turn over when placed on their backs), the mice were treated with 2.5 μl, of a 12.5 mg/mL fluasterone/carbitol solution to give a dose of 1.25 mg/kg. The mice were anesthetized and on their backs for approximately 30 minutes after application of fluasterone/carbitol solution. One hour after the application of fluasterone/carbitol solution, 2 μg of TPA dissolved in 0.2 mL of acetone was applied to the shaved area on the back of each mouse.
The mice were anesthetized with Isoflurane, and then were given an intramuscular injection of 0.1 mL solution of ketamine (50 mg/kg), xylazine (10 mg/kg) and atropine (0.1 mg/kg). Approximately 10 minutes after the i.m. injection (after the mice could not turn over when placed on their backs), the mice were treated with 10 μL of a 12.5 mg/mL fluasterone/Cremophor EL solution to give a dose of 5 mg/kg. The mice were anesthetized and on their backs for approximately 30 minutes after application of fluasterone/Cremophor EL solution. One hour after the application of fluasterone/Cremophor EL solution, 2 μg of TPA dissolved in 0.2 mL of acetone was applied to the shaved area on the back of each mouse.
The mice were anesthetized with Isoflurane, and then were given an intramuscular injection of 0.1 mL solution of ketamine (50 mg/kg), xylazine (10 mg/kg) and atropine (0.1 mg/kg). […]

[2] = tested on: TPA-stimulated epidermal DNA synthesis in mouse epidermis; assay: as above; assay type: in vivo, CD-1 mice; conditions: 20 h; for μg DNA/0.2 mL / cpm / corrected cpm / μg DNA/0.2: single mice; for cpm/μg DNA: single mice and group mean
[3] = Cremophor EL solution, 1.25 mg/kg transdermal (abdomen) 1 h before 2 μg TPA (back), 1.25 mg/kg
[4] = Cremophor EL solution, 5 mg/kg transdermal (abdomen) 1 h before 2 μg TPA (back), 5 mg/kg
[5] = Cremophor EL solution, 1.9 mg/kg transdermal (abdomen) 1 h before 2 μg TPA (back), 1.9 mg/kg
[6] = Cremophor EL:ethanol (50:50 v/v) solution, 1.9 mg/kg transdermal (abdomen) 1 h before 2 μg TPA (back), 1.9 mg/kg
[7] = Cremophor EL:ethanol (50:50 v/v) solution, 2.5 mg/kg transdermal (abdomen) 1 h before 2 μg TPA (back), 2.5 mg/kg
[8] = Cremophor EL:ethanol (50:50 v/v) solution, 5 mg/kg transdermal (abdomen) 1 h before 2 μg TPA (back), 5 mg/kg
[9] = Tween 80:ethanol (50:50 v/v) solution, 1.9 mg/kg transdermal (abdomen) 1 h before 2 μg TPA (back), 1.9 mg/kg

C[C@]12CCCCC1=CC[C@@H]1[C@@H]2CC[C@]2(C)C(=O)[C@H](F)C[C@@H]12 [Fluasterone, 16α-fluoro-5-androsten-17-one]
cpm/μg DNA [1, 3]: 507.3 cpm/μg DNA and 414.3 cpm/μg DNA and 460.1 ± 65.8 cpm/μg DNA | cpm/μg DNA [1, 4]: 116.7 cpm/μg DNA and 147.4 cpm/μg DNA and 132.1 ± 21.7 cpm/μg DNA | lowest effective dose ([1]; Tween 80:ethanol (50:50 v/v) solution, transdermal): ≤ 2.5 mg/kg | cpm/μg DNA ([1]; carbitol solution, 1.9 mg/kg transdermal (abdomen) 1 h before 2 μg TPA (back), 1.9 mg/kg): 365.9 cpm/μg DNA and 227.7 cpm/μg DNA and 296.8 ± 97.7 cpm/μg DNA | cpm/μg DNA ([1]; carbitol solution, 5 mg/kg transdermal (abdomen) 1 h before 2 μg TPA (back), 5 mg/kg): 533.8 cpm/μg DNA and 467.1 cpm/μg DNA and 500.5 ± 47.2 cpm/μg DNA | cpm/μg DNA ([1]; ethanol:limonene:isopropyl myristate (81:15:4) solution, 1.5 mg/kg transdermal (abdomen) 1 h before 2 μg TPA (back), 1.5 mg/kg): 226.9 cpm/μg DNA and 147.5 cpm/μg DNA | transdermal potency compared with s.c. administration in abolishing TPA-stimulated hyperplasia ([1]; mice): as potent as subcutaneous injection | transdermal dose that suppresses TPA-stimulated epidermal [3H]thymidine incorporation and/or epidermal DNA content ([1]; topical solutions and suspension applied to abdomen): 2.5 mg/kg | μg DNA/0.2 mL [2, 3]: 28.1 μg DNA/0.2 mL and 14.9 μg DNA/0.2 mL | cpm/μg DNA [2, 5]: 161.0 cpm/μg DNA and 270.3 cpm/μg DNA and 215.7 ± 77.3 cpm/μg DNA | μg DNA/0.2 mL [2, 5]: 15.4 μg DNA/0.2 mL and 20.1 μg DNA/0.2 mL | μg DNA/0.2 mL ([2]; Cremophor EL solution, 2.5 mg/kg transdermal (abdomen) 1 h before 2 μg TPA (back), 2.5 mg/kg): 8.6 μg DNA/0.2 mL and 10.1 μg DNA/0.2 mL | cpm [2, 4]: 1,015 cpm and 1,686 cpm | μg DNA/0.2 mL [2, 4]: 8.4 μg DNA/0.2 mL and 11.2 μg DNA/0.2 mL | cpm/μg DNA [2, 6]: 207.8 cpm/μg DNA and 160.4 cpm/μg DNA | corrected cpm [2, 6]: 5,965 cpm and 4,025 cpm | cpm [2, 6]: 5,990 cpm and 4,050 cpm | μg DNA/0.2 [2, 6]: 28.7 μg DNA/0.2 and 25.1 μg DNA/0.2 | cpm/μg DNA [2, 7]: 423.2 cpm/μg DNA and 410.7 cpm/μg DNA and 462.8 cpm/μg DNA | corrected cpm [2, 7]: 7,068 cpm and 6,243 cpm and 6,341 cpm | cpm [2, 7]: 7,093 cpm and 6,268 cpm and 6,366 cpm | μg DNA/0.2 [2, 7]: 16.7 μg DNA/0.2 and 15.2 μg DNA/0.2 and 13.7 μg DNA/0.2 | cpm/μg DNA [2, 8]: 125.1 cpm/μg DNA and 222.9 cpm/μg DNA and 206.4 cpm/μg DNA | μg DNA/0.2 [2, 8]: 15.0 μg DNA/0.2 and 14.0 μg DNA/0.2 and 13.3 μg DNA/0.2 | cpm/μg DNA [2, 9]: 216.3 cpm/μg DNA and 189.8 cpm/μg DNA | corrected cpm [2, 9]: 3,114 cpm and 3,150 cpm | cpm [2, 9]: 3,139 cpm and 3,175 cpm | μg DNA/0.2 [2, 9]: 14.4 μg DNA/0.2 and 16.6 μg DNA/0.2

Source: patent US9408856B2, “Topical steroidal formulations” (Temple University—Of The Commonwealth System of Higher …, priority 2008, dated 2016)
